Results from patent publication US11186588B2 (AYUMI PHARMACEUTICAL CORPORATION, priority 2017, dated 2021).

Legend:
[1] = target: Recombinant BRD4 (44-168) protein (Homo sapiens (Human), UniProt O60885); test: BRD4-H4KAc4 binding assay (amplified luminescence proximity homogeneous assay, AlphaScreen); conditions: 10 uM
Outline: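 His/FLAG-tagged BRD4 (44-168) and biotinylated tetra-acetylated H4 peptide, each added as 250 nM solutions, incubated with compound 60 min at room temperature in the dark, then AlphaScreen beads 60 min. Emission 520-620 nm at 680 nm excitation, duplicates; % inhibition from blank- and DMSO-corrected signal.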

NF-κB = NF-κB reporter gene assay (TNF-α stimulated A549/NF-κB-luc cells); assay type: cell-based; conditions: Homo sapiens, TNF-α stimulation
Outline: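 A549 cells stably carrying an NF-κB luciferase reporter were preincubated with compound for 1 h, then stimulated with TNF-α for 3 h. Luminescence was read with Steady-Glo, and inhibition was scaled between blank and DMSO control wells. IC50 was obtained by curve fitting.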

[2] = system: type II collagen-induced arthritis; test: Rat type II collagen-induced arthritis model evaluation test; assay type: in vivo, LEW/CrlCrlj rats; conditions: oral 6 mg/mL solution at 5 mL/kg once a day from Day 12, hind limb volume on Day 21, rats
Experimental: In order to evaluate the inhibitory action for autoimmune and inflammatory diseases of the present compounds, the evaluation of Rat type II collagen-induced arthritis model was carried out. The specific method is described below.
0.05 mol/L acetic acid was added to bovine type II collagen (Collagen Research Center, Cat No. K42) so that it became 2 mg/mL on the day before primary sensitization and secondary sensitization, and the mixture was allowed to stand overnight in a refrigerator to dissolve the material. Immediately before sensitization, it was mixed with an equal amount of Freund's incomplete adjuvant (available from Difco, Cat No. 263910) to prepare an emulsion for sensitization.
An appropriate amount of each compound was weighed, triturated with an agate mortar, and suspended or dissolved in 1% methyl cellulose solution to prepare 6 mg/mL solution.
LEW/CrlCrlj rats (female, purchased from Charles River Laboratories Japan, Inc.) were weighted on the day of primary sensitization (Day 0) and primary grouped to an arthritis non-induced group and an arthritis induced group based on the measured body weight using a random number. The rats (other than the arthritis non-induced group) were thereafter administrated the emulsion for sensitization ([…]) into the skin of the dorsum (divided into 5 portions) under general anesthesia with isoflurane inhalation (available from Mylan Seiyaku Ltd.). Seven days after the primary sensitization (Day 7), the rats (other than the arthritis non-induced group) were manually held in hands and administered the emulsion for sensitization (100 μL) into the skin of the tail. On Day 12, the rats developing arthritis were selected, a random number was used to avoid difference in an average hind limb volume between the groups, and the arthritis induced group was secondary grouped to a control group and each compound-administered group, wherein each group contained 8 samples. The rats were forced orally administered 1% methyl cellulose solution (arthritis non-induced group and control group) or each administration solution comprising the compound (each compound-administered group) at a dose of 5 mL/kg into stomach using a feeding needle once a day from Day 12. The volume of both hind limbs of each rat was measured using a plethysmometer (from Unicom) on Day 0, 4, 7, 12, 14, 18 and 21.
(Calculation of Limb Edema Suppression Rate) The limb edema suppression rate (%) was calculated by the following equation using Microsoft EXCEL 2010. Limb edema suppression rate (%)=100−{(average value of hind limb volume of each compound-administered group on Day 21)−(average value of hind limb volume of arthritis non-induced group on Day 21))/(average value of hind limb volume of control group on Day 21)−(average value of hind limb volume of arthritis non-induced group on Day 21)}×100

inhibition at 10 µM [1]	IC50 (NF-κB)	Structure (SMILES)	Limb edema suppression rate(%) [2]
100%	0.0275 µM	Cc1sc2c(c1C)C(c1ccc(Cl)cc1)=NN(Cc1ccccn1)c1nnc(C)n1-2 [Example 5, 4-(4-chlorophenyl)-2,3,9-trimethyl-6-(pyridin-2-ylmethyl)-6H-thieno[2,3-e][1,2,4]triazolo[3,4-c][1,2,4]triazepine]	92.9%
97.8%	0.15 µM	Cc1sc2c(c1C)C(c1ccccc1)=NN(Cc1ccccn1)c1nnc(C)n1-2 [Example 31, 2,3,9-trimethyl-4-phenyl-6-(pyridin-2-ylmethyl)-6H-thieno[2,3-e][1,2,4]triazolo[3,4-c][1,2,4]triazepine]	68.9%

Further lines, the molecule ahead of its results:

Structure (SMILES)	inhibition at 10 µM [1]	IC50 (NF-κB)	Limb edema suppression rate(%) [2]
Cc1sc2c(c1C)C(c1ccc(Cl)cc1)=NN(Cc1cccnc1F)c1nnc(C)n1-2 [Example 25, 4-(4-chlorophenyl)-6-((2-fluoropyridin-3-yl)methyl)-2,3,9-trimethyl-6H-thieno[2,3-e][1,2,4]triazolo[3,4-c][1,2,4]triazepine]	100%	0.0503 µM	39.8%
Cc1sc2c(c1C)C(c1ccc(Cl)cc1)=NN(Cc1cccnc1Cl)c1nnc(C)n1-2 [Example 38, 4-(4-chlorophenyl)-6-((2-chloropyridin-3-yl)methyl)-2,3,9-trimethyl-6H-thieno[2,3-e][1,2,4]triazolo[3,4-c][1,2,4]triazepine]	100%	0.106 µM	11.9%
CC(=O)Nc1ccc(C2=NN(Cc3cccnc3)c3nnc(C)n3-c3sc(C)c(C)c32)cc1 [Example 71, N-(4-(2,3,9-trimethyl-6-(pyridin-3-ylmethyl)-6H-thieno[2,3-e][1,2,4]triazolo[3,4-c][1,2,4]triazepin-4-yl)phenyl)acetamide]	100%	0.634 µM	93.8%
